Results as given in PMC2802056 (The Journal of neuroscience : the official journal of the …, 2009).

Columns and labels:
[1] = tested on: proton-gated currents in cortical neurons; format: cell-based, mouse; conditions: conditioning pH 7.2
[2] = tested on: ASIC1a; conditions: cited from earlier work; for effect on steady-state desensitization of mouse ASIC1a: ref Sherwood and Askwith, 2008
[3] = molecular target: T1, mouse ASIC1a (Mus musculus, UniProt Q6NXK8); assay: Competition of Big Dynorphin with PcTx1 for ASIC1a modulation, Xenopus oocytes; format: cell-based; conditions: conditioning pH 7.2; PcTx1 0.2 µM or Big Dynorphin 1 µM alone
T1 sequence (Q6NXK8 1-526): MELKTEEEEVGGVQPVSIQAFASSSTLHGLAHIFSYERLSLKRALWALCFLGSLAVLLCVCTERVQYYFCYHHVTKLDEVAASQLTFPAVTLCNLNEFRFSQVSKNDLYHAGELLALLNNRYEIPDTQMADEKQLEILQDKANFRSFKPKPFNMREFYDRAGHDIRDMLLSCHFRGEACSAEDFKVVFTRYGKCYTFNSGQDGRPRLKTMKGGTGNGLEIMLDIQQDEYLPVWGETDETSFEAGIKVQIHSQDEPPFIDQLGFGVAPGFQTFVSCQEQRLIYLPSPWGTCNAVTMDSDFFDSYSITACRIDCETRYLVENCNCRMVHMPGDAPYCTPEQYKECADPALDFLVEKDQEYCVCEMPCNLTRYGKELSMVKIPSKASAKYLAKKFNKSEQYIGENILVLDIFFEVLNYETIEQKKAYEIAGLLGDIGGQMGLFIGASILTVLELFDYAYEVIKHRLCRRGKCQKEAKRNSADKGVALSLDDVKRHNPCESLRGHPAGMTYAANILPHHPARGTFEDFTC

[4] = tested on: ASIC1a:F352L; assay: Steady-state desensitization of mutant ASIC1a:F352L; format: cell-based, mouse; conditions: peptide alone; conditioning pH 6.65; n = 3

Molecule: C=CCN1CC[C@]23c4c5ccc(O)c4O[C@H]2C(=O)CC[C@@]3(O)[C@H]1C5 [Naloxone]
- effect of antagonist alone on proton-gated current [1]: neither of which had any affect on proton-gated currents alone

Molecule: FMRFamide
- competition with PcTx1 ([2]; ref Salinas et al., 2006): does not compete with PcTx1
- effect on steady-state desensitization of mouse ASIC1a [2]: but not FMRFamide, prevented steady-state desensitization of mouse ASIC1a

Molecule: FRRFamide
- effect on steady-state desensitization of mouse ASIC1a [2]: prevented steady-state desensitization of mouse ASIC1a

Molecule: PcTx1
- effect on ASIC1a steady-state desensitization, peptide alone [3]: steady-state desensitization induced by pH 7.2 was enhanced and acid-evoked current was reduced
- effect on steady-state desensitization of ASIC1a:F352L [4]: PcTx1 alone had no effect
- effect on ASIC1a steady-state desensitization ([2]; ref Escoubas et al., 2000, Chen et al., 2006a, Salinas et al., 2006): specifically binds the extracellular domain of ASIC1 to enhance the proton-sensitivity of steady-state desensitization
